{"source": "PubChem BioAssay AID1996"}
{"conditions": "buffer; pH 7.4; 200.0 µM", "units": {"solubility kinetic": "µg/mL"}}
{"smiles": "Cc1ccccc1N=C1c2ccccc2C(=O)C1[N+](=O)[O-]", "note": "(stereo not drawn)", "solubility kinetic": 31.7}
{"smiles": "CCOc1ccc(S(=O)(=O)/N=C(/Nc2ccc(C)c(S(=O)(=O)N3CCOCC3)c2)c2ccccc2)cc1", "solubility kinetic": 7.9}
{"smiles": "Brc1ccccc1C1N=C(c2ccccc2)NO1", "note": "(stereo not drawn)", "solubility kinetic": 10.5}
{"smiles": "COc1cc(N=Cc2c(CO)cnc(C)c2O)cc(OC)c1OC", "solubility kinetic": 49.2}
{"smiles": "O=C(CCN1CCOCC1)Nc1ccc(F)cc1", "solubility kinetic": 30.1}
{"smiles": "Clc1cccc2c1CCN(Cc1nc(-c3cnccn3)no1)C2", "solubility kinetic": 33.9}
{"smiles": "O=C(NCc1ccccn1)Nc1ccccc1C(F)(F)F", "solubility kinetic": "> 44.3"}
{"smiles": "CCc1ccccc1NC(=O)CCC(=O)c1cccs1", "solubility kinetic": 32.1}
{"smiles": "Cc1ccc(S(=O)(=O)NCc2ccccc2)cc1C(=O)NCc1ccccn1", "solubility kinetic": 48.1}
{"smiles": "COc1ccc(-c2nc(N)nc(C(F)(F)F)c2-c2csc(C)n2)c(O)c1", "solubility kinetic": 2.6}
{"smiles": "CN(C)CCCNc1nc(-c2ccc(Cl)cc2)nc2ccccc12", "solubility kinetic": 41.7}
{"smiles": "CC1CN(C2=NC(=O)/C(=C/c3ccncc3)S2)CC(C)O1", "note": "(stereo not drawn)", "solubility kinetic": "> 45.5"}
{"smiles": "Oc1ccc(Cl)cc1C=Nc1ccc(Br)cc1", "solubility kinetic": 21.4}
{"smiles": "CC(=O)C1=C(O)C(=O)N(c2ccc(O)cc2)C1c1ccc(C)cc1", "note": "(stereo not drawn)", "solubility kinetic": "> 48.5"}
{"smiles": "O=C(CCCc1ccccc1)Nc1ccccc1C(F)(F)F", "solubility kinetic": 5.1}
{"smiles": "Cc1[nH]c2ccc(C(C)C)cc2c1CC(=O)O", "solubility kinetic": "> 34.7"}
{"smiles": "O=C(NC1CCCCC1)c1cc(-c2ccc(F)cc2)on1", "solubility kinetic": "< 0.3"}
{"smiles": "O=c1c2ccccc2ncn1-c1ccc(Cl)cc1", "solubility kinetic": 8.7}
{"smiles": "COc1ccc(NC(=O)CN(C)C(=O)CCc2ccccc2)cc1", "solubility kinetic": 40.7}
{"smiles": "NC(=O)c1ccc(C2SCC(=O)N2CCc2ccccc2)cc1", "note": "(stereo not drawn)", "solubility kinetic": "> 49"}
{"smiles": "CCC(=NCCc1ccccc1)c1c(O)n(C)c(=O)n(C)c1=O", "solubility kinetic": 42.3}
{"smiles": "Nc1ccc2nc(-c3cccc(-c4nc5ccc(N)cc5[nH]4)n3)[nH]c2c1", "solubility kinetic": 21.5}
{"smiles": "COc1ccc(N(C)C(=S)Nc2ccc3nc(C)c(C)nc3c2)cc1", "solubility kinetic": 4.1}
{"smiles": "c1ccc(CCNCCOc2ccccc2)cc1", "solubility kinetic": 22.8}
{"smiles": "CCC(=O)c1cn(CC(=O)Nc2cc(C)ccc2C)c2ccccc12", "solubility kinetic": "< 0.4"}
{"smiles": "Cc1cnc(C(=O)NC(C)CCc2ccccc2)cn1", "note": "(stereo not drawn)", "solubility kinetic": "> 40.4"}
{"smiles": "COc1ccc(-n2c(=S)[nH]c3sc4c(c3c2=O)CCN(C)C4)cc1", "solubility kinetic": "> 53.9"}
{"smiles": "COCCN(C(=S)Nc1ccccc1C)C(C)c1ccco1", "note": "(stereo not drawn)", "solubility kinetic": 45.7}
{"smiles": "CN(C)CCNC(=O)C(c1ccccc1)c1ccccc1", "solubility kinetic": 37.9}
{"smiles": "COc1ccc2oc(=O)c(N3C(=O)c4ccccc4C3=O)cc2c1", "solubility kinetic": 1.2}
{"smiles": "O=[N+]([O-])c1ccc(CSc2ccccn2)cc1", "solubility kinetic": 15.2}
{"smiles": "CN(C)CCCN1C(=O)C2CCc3[nH]c4ccccc4c3C2C1=O", "note": "(stereo not drawn)", "solubility kinetic": "> 48.8"}
{"smiles": "Fc1c(F)c(F)c(NC2=NCCCCC2)c(F)c1F", "solubility kinetic": "> 41.7"}
{"smiles": "O=C1/C(=C\\c2ccc(O)c(O)c2)SC(=S)N1Cc1ccccc1", "solubility kinetic": 4}
{"smiles": "COCCNC(=O)c1cccc2c1-c1ccccc1C2=O", "solubility kinetic": "> 42.2"}
{"smiles": "O=C(Cc1ccccc1)Nc1ccc2c(c1)OC1(CCCC1)O2", "solubility kinetic": 16.4}
{"smiles": "CC(=O)Nc1cccc(Oc2nc(C(F)(F)F)nc3ccccc23)c1", "solubility kinetic": 14}
{"smiles": "Cc1cc(C)n2nc(C(=O)NNC(=O)c3ccccc3)nc2n1", "solubility kinetic": "> 46.5"}
{"smiles": "COc1cc(C(=O)O)c([N+](=O)[O-])c(OC)c1OC", "solubility kinetic": "> 38.6"}
{"smiles": "Cc1ccc2cccc(OCC(=O)N3CCc4ccccc43)c2n1", "solubility kinetic": "< 0.3"}
{"smiles": "CN1CCN(CCOc2ccc(Cc3ccccc3)cc2)CC1.Cl", "solubility kinetic": 40.4}
{"smiles": "CC(O)CN1CC(O)=C(c2nc3ccccc3s2)C1=N", "note": "(stereo not drawn)", "solubility kinetic": 17.8}
{"smiles": "S=C1NC2(CCCCCC2)N=C1c1ccccc1", "solubility kinetic": 2.8}
{"smiles": "CC(=O)N(Cc1ccc(Cl)cc1)c1cnccn1", "solubility kinetic": "> 39.3"}
{"smiles": "COc1ccc(CNC(=O)c2cccnc2SC)cc1OC", "solubility kinetic": "> 47.8"}
{"smiles": "Cn1c(=O)oc2cc(S(=O)(=O)Nc3ccccc3F)ccc21", "solubility kinetic": 15.6}
{"smiles": "Cc1nonc1CC(=O)N1CCCC(C(=O)c2ccc(Cl)cc2)C1", "note": "(stereo not drawn)", "solubility kinetic": 48.2}
{"smiles": "CC(C)c1ccccc1OCCNC(=O)c1cncc(Br)c1", "solubility kinetic": 36.4}
{"smiles": "Cc1ccc(S(=O)(=O)Nc2cc3c4c(c2)CC(=O)N4CCC3)cc1", "solubility kinetic": 8.6}
{"smiles": "CC(C)c1nc2sc3c(=O)[nH]c(=S)[nH]c3c2c2c1CCCC2", "solubility kinetic": 45.9}
{"smiles": "O=C1NCCN/C1=C\\C(=O)c1ccc(Br)cc1", "solubility kinetic": 17.8}
{"smiles": "Cl.O=C(CCN1CCOCC1)Nc1ccc(Cl)cc1", "solubility kinetic": "> 45.8"}
{"smiles": "CCOc1cc(/C=N/NC(=O)C2CCCC2)ccc1O", "solubility kinetic": "> 41.5"}
{"smiles": "COc1ccc(NS(=O)(=O)c2ccc(N3CCCC3)c(NC(=S)Nc3cccc(C)c3C)c2)cc1", "solubility kinetic": 7.6}
{"smiles": "COC(=O)c1ccc(NC(=O)CCN2CCOCC2)cc1", "solubility kinetic": "> 43.9"}
{"smiles": "O=C(O)CNC(=S)N(Cc1ccc(F)cc1)C1CCCCC1", "solubility kinetic": "> 48.7"}
{"smiles": "CSc1nc(NCCCO)c2c3c(sc2n1)CN(C)CC3", "solubility kinetic": 41.7}
{"smiles": "CN(CC(=O)Nc1ccc(F)cc1)C(=O)c1ccccc1OCc1ccc(F)cc1", "solubility kinetic": 30.4}
{"smiles": "CC(C)(C)c1ccc(N2C(=O)CC(C/C=C/c3ccccc3)C2=O)cc1", "note": "(stereo not drawn)", "solubility kinetic": "< 0.7"}
{"smiles": "CCCCCCCCCCCCCCCC(=O)OC(CC(=O)O)C[N+](C)(C)C.[Cl-]", "note": "(stereo not drawn)", "solubility kinetic": 4.5}
{"smiles": "CCCCN(Cc1ccccc1)C1CCN(Cc2ccccc2)CC1", "solubility kinetic": 27.3}
{"smiles": "Cc1nc2c(oc3ccc(Cl)cc32)c(=O)[nH]1", "solubility kinetic": 11.9}
{"smiles": "COC(=O)c1ccc(NC(=O)Nc2ccccc2C)cc1", "solubility kinetic": 4.3}
{"smiles": "Cc1[nH]c2ccccc2c1-c1csc(NC(=O)CSCCO)n1", "solubility kinetic": "> 52.1"}
{"smiles": "Cc1ccc(CNC(=O)c2ccc3c(c2)NC(=O)CS3)cc1", "solubility kinetic": 3.1}
{"smiles": "COc1ccccc1N1C(=O)CC(N(O)c2ccccc2)C1=O", "note": "(stereo not drawn)", "solubility kinetic": "> 46.8"}
{"smiles": "CSCc1c(C(=O)Nc2ccc3c(c2)OCO3)oc2ccccc12", "solubility kinetic": 6.4}
{"smiles": "O=C(NCc1cccs1)C1CCCN(C(=O)Nc2ccccc2)C1", "note": "(stereo not drawn)", "solubility kinetic": 21.7}
{"smiles": "COc1ccc(C(=O)O)cc1S(=O)(=O)N1CCCc2ccccc21", "solubility kinetic": "> 52.1"}
{"smiles": "CCN(CC(=O)Nc1ccc(C(C)=O)cc1)CC(=O)Nc1ccc2c(c1)OCCO2.O=C(O)C(=O)O", "solubility kinetic": "> 75.2"}
{"smiles": "Nc1nc(COc2ccccc2C=O)nc(Nc2ccccc2)n1", "solubility kinetic": 32.5}
{"smiles": "CCN(Cc1ccncc1)C(=O)C(CO)c1ccccc1", "note": "(stereo not drawn)", "solubility kinetic": "> 42.7"}
{"smiles": "N#C/C(=C\\C=C\\c1ccccc1)C(=O)NCc1cccnc1", "solubility kinetic": 6.3}
{"smiles": "CC(C)(C)c1ccc(NC(=O)c2c(F)cccc2Cl)cc1", "solubility kinetic": 1.1}
{"smiles": "Cc1onc(-c2c(F)cccc2Cl)c1C(=O)Nc1ccc(S(=O)(=O)N2CCOCC2)cc1", "solubility kinetic": 2.3}
{"smiles": "Cc1ccc(NC(=O)c2ccco2)c(NC(=O)c2ccccc2)c1", "solubility kinetic": 4.1}
{"smiles": "S=C(NCC1CCCO1)N1CCN(Cc2ccccc2Cl)CC1", "note": "(stereo not drawn)", "solubility kinetic": "> 53.1"}
{"smiles": "Nc1cccc2c1C(=O)N(CCOc1ccccc1F)C2=O", "solubility kinetic": 20.3}
{"smiles": "O=C(c1ccc2nc[nH]c2c1)N1CCN(c2cccc(Cl)c2)CC1", "solubility kinetic": 42.7}
{"smiles": "O=C(Nc1ccccc1)Nc1ccno1", "solubility kinetic": "> 30.5"}
{"smiles": "COc1ccc(C(=O)CSc2[nH]c(=O)cc(C(F)(F)F)c2C#N)cc1", "solubility kinetic": "> 55.2"}
{"smiles": "O=C(O)[C@H](Cc1c[nH]c2ccccc12)Nc1ncccc1[N+](=O)[O-]", "solubility kinetic": "> 48.9"}
{"smiles": "O=C1Cc2cc(NS(=O)(=O)c3ccc(Cl)cc3)cc3c2N1CCC3", "solubility kinetic": 42.9}
{"smiles": "Cc1nc2ccccc2c2c1CC(C)S2", "note": "(stereo not drawn)", "solubility kinetic": 24.5}
{"smiles": "C=Cn1cc[n+](CC(=O)c2ccc(Cl)cc2)c1.[Br-]", "solubility kinetic": 43.3}
{"smiles": "O=C(COc1ccc2c(c1)OCO2)Nc1nccs1", "solubility kinetic": 20.9}
{"smiles": "O=C(CCNC(=O)c1ccco1)NCc1ccc(C(=O)O)cc1", "solubility kinetic": "> 47.4"}
{"smiles": "Cc1cc(=O)oc(C)c1C(=O)NC1CCCCCCC1", "solubility kinetic": 11.8}
{"smiles": "CC1=Nc2ccccc2N=C(NC(=O)/C=C/C(=O)O)C1c1ccccc1", "note": "(stereo not drawn)", "solubility kinetic": "> 52.1"}
{"smiles": "COc1ccc(OC)c(NC(=O)c2csc(Cl)c2OC)c1", "solubility kinetic": "< 0.7"}
{"smiles": "O=c1c2c3c(sc2[nH]c(=S)n1Cc1ccco1)CCC3", "solubility kinetic": 34.6}
{"smiles": "Cc1ccc(-c2cc(C(=O)N3CCOCC3)c3ccccc3n2)o1", "solubility kinetic": "> 48.4"}
{"smiles": "Cc1cccc(OCC(=O)NCCNC(=O)c2ccccn2)c1", "solubility kinetic": "> 47"}
{"smiles": "Cc1ccc(NC(=O)C2CCCCC2C(=O)O)cc1Cl", "note": "(stereo not drawn)", "solubility kinetic": "> 44.4"}
{"smiles": "COc1ccc2c(c1)CC/C(=C/c1ccccn1)C2=O", "solubility kinetic": 38.5}
{"smiles": "COC(=O)c1cc(NC(=O)COC(=O)CCc2nc3ccccc3c(=O)[nH]2)cc(C(=O)OC)c1", "solubility kinetic": 18}
{"smiles": "CCOc1ccc(C(=O)OCC(=O)NCC2CCCO2)cc1", "note": "(stereo not drawn)", "solubility kinetic": "> 46.1"}
{"smiles": "COc1ccc(C(=O)OCC(=O)NCCN2C(=O)CSC2=O)cc1[N+](=O)[O-]", "solubility kinetic": "> 59.6"}
{"smiles": "CCc1noc(N)c1C(=O)Nc1ccc(Cl)cc1", "solubility kinetic": "> 39.9"}
{"smiles": "Cc1c(/C=C(\\CC(=O)O)c2nc3ccccc3s2)cc(C#N)n1C", "solubility kinetic": 44.6}
{"smiles": "Cc1cccc(NC(=O)CCCc2ccccc2)c1C", "solubility kinetic": "< 0.6"}
{"smiles": "CN1CN=C(NS(=O)(=O)c2ccc([N+](=O)[O-])cc2)NC1", "solubility kinetic": "> 44.9"}
{"smiles": "O=C(O)c1ccccc1C(=O)NCCc1ccc(Cl)cc1", "solubility kinetic": 43.3}
{"smiles": "COC(=O)/C(C#N)=C/c1c[nH]c2ccccc12", "solubility kinetic": 7.1}
{"smiles": "CN(CC(=O)Nc1ccccc1Cl)C1CCCCC1", "solubility kinetic": 14.7}
{"smiles": "O=C(NCCN1CCOCC1)C1CC(=O)N(c2ccc(F)cc2)C1", "note": "(stereo not drawn)", "solubility kinetic": 48.8}
{"smiles": "COc1ccc2oc(C(=O)Nc3nc(C)cs3)c(C)c2c1", "solubility kinetic": 4.8}
{"smiles": "O=C(NCCNC(=O)c1cccc(O)c1)c1cccc(O)c1", "solubility kinetic": "> 45"}
{"smiles": "Cc1cccc(NC(=O)CN(C)C(=O)C2CCCC2)c1C", "solubility kinetic": "> 43.3"}
{"smiles": "Cl.Fc1ccc(OCCCCN2CCOCC2)cc1", "solubility kinetic": "> 43.5"}
{"smiles": "COc1ccc(N2CCN(c3ccc(NC(=O)/C=C\\C(=O)O)cc3)CC2)cc1", "solubility kinetic": "> 57.2"}
{"smiles": "COc1cccc(C2CCCN2Cc2nc(-c3cnccn3)no2)c1", "note": "(stereo not drawn)", "solubility kinetic": 44.9}
{"smiles": "CCC(C)c1ccccc1NC(=O)CN(CC)CC(=O)Nc1ccc2c(c1)OCCO2", "note": "(stereo not drawn)", "solubility kinetic": 38.3}
{"smiles": "O=C(O)c1ccc(Nc2ccc(F)c(F)c2)c([N+](=O)[O-])c1", "solubility kinetic": "> 44.1"}
{"smiles": "CC1N(C(=O)N(C)C)CCN1S(=O)(=O)c1ccccc1", "note": "(stereo not drawn)", "solubility kinetic": "> 44.6"}
{"smiles": "O=C(NCCNC(=O)c1ccco1)c1ccc(F)cc1", "solubility kinetic": "> 41.4"}
{"smiles": "CCOC(=O)c1ccc(NC(C)=O)c([N+](=O)[O-])c1", "solubility kinetic": "> 37.8"}
{"smiles": "COc1ccccc1N(CCOc1ccccc1)S(=O)(=O)c1ccccc1", "solubility kinetic": 3.9}
